Experimental findings from PMC5046141, “Discovery of Isoquinolinoquinazolinones as a Novel Class of Potent PPARγ Antagonists with Anti-adipogenic Effects” (Scientific Reports, 2016) are described below.

The target of one data set is T1, PPARγ2-LBD (Mus musculus, UniProt P37238).
T1 construct: mouse PPARγ2 (residues 230–505) were expressed as N-terminal GST-tagged proteins; made in house; host or cells: E. coli BL21(DE3)
T1 sequence (P37238 230-505): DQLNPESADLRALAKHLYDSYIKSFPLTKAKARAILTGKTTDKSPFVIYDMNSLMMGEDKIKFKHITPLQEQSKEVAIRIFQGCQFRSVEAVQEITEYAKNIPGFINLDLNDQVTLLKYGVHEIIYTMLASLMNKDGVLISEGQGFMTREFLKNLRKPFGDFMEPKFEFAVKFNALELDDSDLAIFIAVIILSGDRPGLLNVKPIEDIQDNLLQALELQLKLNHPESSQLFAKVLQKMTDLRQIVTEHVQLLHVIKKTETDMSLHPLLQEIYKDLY
In words: Surface plasmon resonance binding to immobilized PPARγ2-LBD. As to conditions: for Kd / kon / koff: SPR, 25 °C, PBS; for Kd: read-out: KD (equilibrium dissociation constant); for kon: read-out: ka (association rate constant); for koff: read-out: kd (dissociation rate constant). The method, then: PPARγ2 protein was immobilized on the sensor chip, and the response (in resonance unit; RU) as a result of binding was continuously recorded and presented graphically as a function of time[25]. The association rate (ka also known as on rate (kon)), dissociation rate (kd also known as off rate (koff)), and equilibrium dissociation constant (KD) were calculated using the Scrubber 2 program (Table 2).
The recombinant ligand-binding domains (LBDs) of mouse PPARγ2 (residues 230–505) were expressed as N-terminal GST-tagged proteins using the pGEX4T3 vector. pGXE4T3-mPPARγ2-LBD plasmid was transfected into BL21(DE3) competent cells and the cells were grown in LB medium containing 50 μg/mL ampicillin at 37 °C to an O. D. 600 of 0.6–0.8. The expression of PPARγ2-LBD was induced by the addition of 0.2 mM isopropyl β-D-thiogalactoside (IPTG). After treatment for 24 h at 22 °C, the cells were harvested and disrupted using sonication buffer [25 mM HEPES (pH 7.5), 150 mM NaCl, 1% NP-40, 0.25% sodium deoxycholate, 10% glycerol, 25 mM NaF, 1 mM EDTA, 1 mM Na3VO4, 250 μM PMSF, 10 μg/mL leupeptin, and 10 μg/ml aprotinin]. The supernatant was applied to glutathione-Sepharose beads for 24 h at 4 °C. The bound GST fusion proteins were washed with the sonication buffer and eluted by elution buffer [25 mM glutathione, 50 mM Tris pH 8.8, 200 mM NaCl].
Immobilization of the protein on the hydrophilic carboxymethylated dextran matrix of the sensor chip (Reichert) was carried out using a standard primary amine coupling reaction. Free carboxyl groups on the surface were modified by injecting a mixture of 0.1 M 1-ethyl-3-(3-dimethylaminopropyl) carbodiimide hydrochloride and 0.05 M N-hydroxysuccinimide at a flow rate of 20 μL/min to generate a reactive succinimide ester surface. Baseline equilibration was achieved by flushing the chip with PBS buffer for 1–2 h. All of the SPR data was collected at 25 °C with PBS as running buffer at a constant flow of 30 μL/min. All the sensorgrams were processed by using automatic correction for nonspecific bulk refractive index effects. All the kinetic analyses of the binding to PPARγ2-LBD were calculated using the Scrubber2 program (Bio-Logic Software).

In the case of `O=C(Nc1ccccc1)c1cc([N+](=O)[O-])ccc1Cl` [GW9662, reference compound], at PPARγ2-LBD, the Kd is 3.91 µM, the kon was determined as 15.1 M⁻¹ s⁻¹ and the koff is 5.9e-05 s⁻¹.
The molecule `COc1cc2cc3n(c(=O)c2cc1OC)CNc1cc(Cl)ccc1-3` [Compound 8o, 3-Chloro-10,11-dimethoxy-5H-isoquinolino[2,3-c]quinazolin-8(6H)-one] gave a melting point of 228.7 to 230.5 °C. Also, on PPARγ2-LBD, the Kd is 146 µM, the kon came to 24 M⁻¹ s⁻¹ and the koff is 0.00351 s⁻¹. On PPARγ2-LBD (ratio of KD values), the “binding affinity relative to GW9662 (less than)” value came to 37 folds and the “binding affinity relative to rosiglitazone (more than)” value was 4 folds.
Consider `COc1cc2cc3n(c(=O)c2cc1OC)CNc1ccc(Cl)cc1-3` [Compound 8n, 2-Chloro-10,11-dimethoxy-5H-isoquinolino[2,3-c]quinazolin-8(6H)-one], for which the melting point fell in the range of 193.5 to 194.6 °C.
